Experimental data as given in patent US9988366B2, “Pesticidally active heterocyclic derivatives with sulphur containing substituents” (Syngenta Participations AG, priority 2014, dated 2018).

What was measured:
Type in all cases: in vivo
[1] = tested on: Tetranychus urticae (two-spotted spider mite); assay: Example B10: Tetranychus urticae, bean leaf disc spray test; details: foliar, 192 h
Description: Example B10: Activity Against Tetranychus urticae (Two-Spotted Spider Mite)
Bean leaf discs on agar in 24-well microtiter plates were sprayed with aqueous test solutions prepared from 10′000 ppm DMSO stock solutions. After drying the leaf discs were infested with a mite population of mixed ages. The samples were assessed for mortality on mixed population (mobile stages) 8 days after infestation.

[2] = tested on: Myzus persicae (green peach aphid); assay: Example B5: Myzus persicae feeding/residual contact activity, preventive, mixed population (sunflower leaf discs); details: foliar, 144 h, mixed population on sunflower leaf discs, 6 DAT
Description: Example B5: Activity Against Myzus persicae (Green Peach Aphid)
(Feeding/Residual Contact Activity, Preventive), Mixed Population
Sunflower leaf discs were placed on agar in a 24-well microtiter plate and sprayed with test solutions. After drying, the leaf discs were infested with an aphid population of mixed ages. After an incubation period of 6 DAT, samples were checked for mortality and special effects (e.g. phytotoxicity).

[3] = tested on: Spodoptera littoralis (Egyptian cotton leaf worm); assay: Example B1: Spodoptera littoralis larvicide, feeding/residual contact activity, preventive (cotton leaf discs); details: foliar, 72 h, L1 larvae on sprayed cotton leaf discs, 3 days after treatment, read-out: effect in at least one of the three categories (mortality, anti-feedancy, or growth inhibition)
Source text: Example B1: Activity Against Spodoptera littoralis (Egyptian Cotton Leaf Worm)
(§1) (Larvicide, Feeding/Residual Contact Activity, Preventive)
Cotton leaf discs were placed on agar in a 24-well microtiter plate and sprayed with test solutions. After drying, the leaf discs were infested with five L1 larvae. The samples were checked for mortality, repellent effect, feeding behaviour, and growth regulation 3 days after treatment (DAT). Control of Spodoptera littoralis by a test sample is when at least one of mortality, anti-feedant effect, and growth inhibition is higher than an untreated sample.

[4] = tested on: Diabrotica balteata (corn root worm); assay: Example B4: Diabrotica balteata larvae L2 on maize sprouts, feeding/contact, preventative; details: 120 h, 5 days, read-out: activity (larval mortality and growth regulation)
Description: Example B4: Activity Against Diabrotica balteata (Corn Root Worm)
(Larvae L2 on Maize Sprouts, Feeding/Contact, Preventative)
Maize sprouts, placed on an agar layer in 24 well micro titer plates were treated with test solutions by spraying. After drying, the MTPs were infested with L2 larvae (6-10 per well). After an incubation period of 5 days, samples were checked for larval mortality and growth regulation.

[5] = tested on: Spodoptera littoralis (Egyptian cotton leaf worm); assay: Example B2: Spodoptera littoralis systemic activity (lettuce on agar); details: 120 h, systemic via lettuce roots, 5 days after infestation, read-out: effect in at least one of the three categories (mortality, anti-feedancy, or growth inhibition)
Source text: Example B2: Activity Against Spodoptera littoralis (Egyptian Cotton Leaf Worm)
Test compounds were applied by pipette into 24 well plates and mixed with agar. Lettuce seeds were placed on the agar and the multi well plate is closed by another plate which contains also agar. After 7 days the roots have absorbed the compound and the lettuce has grown into the lid plate. The lettuce leaves were now cut off into the lid plate. Spodoptera eggs were pipetted through a plastic stencil on a humid gel blotting paper and the plate closed with it. The samples are checked for mortality, repellent effect, feeding behavior, and growth regulation 5 days after infestation.

[6] = tested on: Myzus persicae (green peach aphid); assay: Example B9: Myzus persicae systemic/feeding activity, curative, mixed population (pea seedling roots); details: 144 h, pea seedling roots in test solution, 6 days after introduction
Source text: Example B9: Activity Against Myzus persicae (Green Peach Aphid)
(Systemic/Feeding Activity, Curative), Mixed Population
Roots of pea seedlings, infested with an aphid population of mixed ages, were placed directly in the test solutions. 6 days after introduction, samples were checked for mortality and special effects on the plant.

[7] = tested on: Plutella xylostella (diamond back moth); assay: Example B3: Plutella xylostella larvicide, feeding/residual contact activity, preventive (artificial diet); details: 120 h, L2 larvae on artificial diet, 5 days, read-out: activity (larval mortality, antifeedant and growth regulation)
Description: Example B3: Activity Against Plutella xylostella (Diamond Back Moth)
as §1
24-well microtiter plate (MTP) with artificial diet was treated with test solutions by pipetting. After drying, the MTPs were infested with L2 larvae (10-15 per well). After an incubation period of 5 days, samples were checked for larval mortality, antifeedant and growth regulation.

[8] = tested on: Bemisia tabaci (cotton white fly); assay: Example B7: Bemisia tabaci adulticide contact activity, preventative (cotton leaf discs); details: foliar, 168 h, adult white flies on cotton leaf discs, 7 DAT
Description: Example B7: Activity Against Bemisia tabaci (Cotton White Fly)
(Adulticide Contact Activity, Preventative), Adult
Cotton leaf discs were placed on agar in a 24-well microtiter plate and sprayed with test solutions. After drying, the leaf discs were infested with adult white flies. After an incubation period of 7 DAT, samples were checked for mortality and special effects (e.g. phytotoxicity).

[9] = tested on: Euschistus heros (neotropical brown stink bug); assay: Example B8: Euschistus heros, soybean leaf spray test; details: 120 h, N-2 nymphs on soybean leaf, 5 days after infestation
Description: Example B8: Activity Against Euschistus heros (Neotropical Brown Stink Bug)
Soybean leaf on agar in 24-well microtiter plates were sprayed with aqueous test solutions prepared from 10,000 ppm DMSO stock solutions. After drying the leaf were infested with N-2 nymphs. The samples were assessed for mortality 5 days after infestation.

[10] = tested on: Myzus persicae (green peach aphid); assay: Example B6: Myzus persicae feeding activity sachet test, mixed population; details: 120 h, sucrose solution, 5 days after infestation
Source text: Example B6: Activity Against Myzus persicae (Green Peach Aphid)
(Feeding Activity Sachet Test), Mixed Population
Test compounds were applied by pipette into 24 well plates and mixed with Sucrose solution. The plates were closed with a stretched Parafilm. A plastic stencil with 24 holes is placed onto the plate and infested pea seedlings were placed directly on the Parafilm. The infested plate is closed with a gel blotting paper and another plastic stencil and then turned upside down. 5 days after infestation the samples were checked on mortality. Application rate: 12.5 ppm.

| Compound | mortality at 400 ppm [1] | mortality at 400 ppm [2] | percent control (mortality, anti-feedancy or growth inhibition) at 400 ppm [3] | mortality at 400 ppm [4] | percent control (mortality, anti-feedancy or growth inhibition) at 12.5 ppm [5] | mortality at 24 ppm [6] | mortality at 400 ppm [7] | mortality at 400 ppm [8] | mortality at 400 ppm [9] | mortality at 12.5 ppm [10] |
| --- | --- | --- | --- | --- | --- | --- | --- | --- | --- | --- |
| CCS(=O)(=O)c1cc(C(F)(F)F)cnc1-c1ncc(-c2cc(C(F)(F)F)ccn2)n1C [Compound P3] | ≥ 80% | > 80% | ≥ 80% | > 80% | ≥ 80% | – | – | – | – | – |
| CCS(=O)(=O)c1cc(C(F)(F)F)cnc1-c1ncc(-c2ccc(C(F)(F)F)nc2)n1C [Compound P4] | – | > 80% | ≥ 80% | > 80% | ≥ 80% | ≥ 80% | > 80% | > 80% | > 80% | – |
| CCS(=O)(=O)c1cc(C(F)(F)F)cnc1-c1ncc(-c2ccnc(C(F)(F)F)c2)n1C [Compound P6] | – | > 80% | ≥ 80% | > 80% | – | – | > 80% | > 80% | – | – |
| CCS(=O)(=O)c1cc(C(F)(F)F)ccc1-c1ncc(-c2ccc(C(F)(F)F)cc2)n1C [Compound P9] | – | > 80% | ≥ 80% | > 80% | ≥ 80% | – | > 80% | > 80% | – | – |
| CCS(=O)(=O)c1cc(C(F)(F)F)ccc1-c1ncc(-c2ccc(C(F)(F)F)nc2)n1C [Compound P10] | – | > 80% | ≥ 80% | > 80% | ≥ 80% | – | > 80% | > 80% | – | – |
| CCS(=O)(=O)c1cc(C(F)(F)F)cnc1-c1ncc(-c2ccc(S(=O)(=O)C(F)(F)F)cc2)n1C [Compound P12] | – | – | ≥ 80% | > 80% | ≥ 80% | – | > 80% | – | – | – |
| CCS(=O)(=O)c1cc(C(F)(F)F)cnc1-c1ncc(-c2ccc(SC(F)(F)F)cc2)n1C [Compound P15] | – | > 80% | ≥ 80% | > 80% | ≥ 80% | – | > 80% | > 80% | > 80% | – |
| CCS(=O)(=O)c1cc(C(F)(F)F)cnc1-c1ncc(-c2ccnc(F)c2)n1C [Compound P39] | – | – | ≥ 80% | > 80% | – | ≥ 80% | > 80% | – | – | ≥ 80% |
| CCS(=O)(=O)c1cc(C(F)(F)F)cnc1-c1ncc(-c2cnc(C(F)(F)F)nc2)n1C [Compound P50] | – | – | ≥ 80% | > 80% | – | ≥ 80% | > 80% | – | – | ≥ 80% |
| CCS(=O)(=O)c1cc(C(F)(F)F)cnc1-c1ncc(-c2ccc(F)nc2)n1C [Compound P54] | – | – | ≥ 80% | > 80% | – | ≥ 80% | > 80% | – | – | ≥ 80% |
